Data published in patent US8916703B2, “Dithiinopyridazinone derivates” (Bayer Intellectual Property GmbH, priority 2010, dated 2014).

Key:
[1] = logP by HPLC on reversed-phase column (EEC Directive 79/831 Annex V.A8); assay type: physicochemical; conditions: reversed-phase C18 HPLC column, 43° C., acidic range pH 2.7 (0.1% formic acid/acetonitrile), read-out: Log P
Description: The logP values reported in the preparation examples and tables above are determined in accordance with EEC Directive 79/831 Annex V.A8 by means of HPLC (High Performance Liquid Chromatography) on a reversed-phase column (C18). Temperature: 43° C. The determination with the LC-MS in the acidic range takes place at a pH of 2.7 using 0.1% aqueous formic acid and acetonitrile (containing 0.1% formic acid) as eluents; linear gradient from 10% acetonitrile to 95% acetonitrile. Calibration takes place using unbranched alkan-2-ones (having 3 to 16 carbon atoms) of which the logP values are known (logP values determined on the basis of the retention times, by linear interpolation between two successive alkanones).

[2] = test system: Puccinia recondita; assay: Puccinia test (wheat)/protective; assay type: in vivo; conditions: wheat plants, protective spray, application rate 1500 ppm, evaluation 7-9 days after inoculation
Text: Puccinia Test (Wheat)/Protective
• Solvent: 49 parts by weight of N,N-dimethylformamide • Emulsifier: 1 part by weight of alkylaryl polyglycol ether
An appropriate preparation of active compound is produced by mixing 1 part by weight of active compound with the stated amounts of solvent and emulsifier and diluting the concentrate with water to the desired concentration. To test for protective activity, young wheat plants are sprayed with the preparation of active compound at the stated application rate. A day after the treatment, the plants are inoculated with a spore suspension of Puccinia recondita and then stand for 48 hours at 100% relative humidity and 22° C. Subsequently the plants stand at 80% relative humidity and a temperature of 20° C. After 7-9 days following inoculation, evaluation takes place. Here, 0% denotes an efficacy which corresponds to that of the control, whereas an efficacy of 100% means that no infestation is observed.

- chromatographic logP [1]: 4.6
Compound: CC(C)(C)n1ncc2c(c1=O)Sc1c(cnn(C(C)(C)C)c1=O)S2 [Compound 7, 2,8-di-tert-butyl[1,4]dithilino[2,3-d:5,6-d′]dipyridazine-1,9(2H,8H)-dione]
- Efficacy in % [2]: 70%
